Data published in patent US20100040565A1, “ACTIVE DELIVERY SYSTEMS FORMULATIONS” (Castle Beach, LLC, priority 2008, published 2010).

Assays:
[1] = Behaviour of the permethrin-on-carrier formulation on substrates (activity duration, spreading, adherence); conditions: permethrin trapped in porous carrier (Silcron G100) in barrier/transfer agent composition
[2] = type: physicochemical
Description: DEET is incorporated into the pores, if any present, and onto the surfaces of a carrier. The evaporation rate of DEET from a thin film was then measured by weight. The film was smeared onto a glass slide and its weight was measured as a function of time. The initial weight of the film was 0.0231 grams and the area that was covered was […] (thickness ca 10 microns). The weight of the film leveled off at 0.019 grams when the DEET was fully evaporated, approximately 36 hours after application. Half of the DEET, about 2 milligrams on 3 square inches, remained 16 hours after application.

Question: For `CC1(C)C(C=C(Cl)Cl)C1C(=O)OCc1cccc(Oc2ccccc2)c1` (centres unmarked) [permethrin], which “Activity duration of permethrin in the formulation” value [1] is on record?
Answer: The value was “significantly prolonged”.

Question: With `CCN(CC)C(=O)c1cccc(C)c1` [DEET] as the compound, how does the “Amount of DEET remaining” value ([2]; 16 h) read?
Answer: Its value is “about 2 milligrams”.

Question: And the “Time after application at which half of the DEET remained” value ([2]; thin film ca 10 microns on glass slide)?
Answer: Its value is 16 h.

Question: And the “Time until DEET was fully evaporated from the film” value ([2]; thin film ca 10 microns smeared on glass slide, initial film weight 0.0231 grams, time after application)?
Answer: The value was “approximately 36 hours”.

Question: What about the “Weight at which the film leveled off” value ([2]; when the DEET was fully evaporated, initial film weight 0.0231 grams) of the same compound?
Answer: Its value is 0.019 grams.
